Results taken from patent US20140148454A1, “SUBSTITUTED AMINO-ACRYLCARBOXAMIDES AS KCNQ2/3 MODULATORS” (GRÜNENTHAL GMBH, priority 2012, published 2014).

Tests used:
[1] = system: withdrawal reflex of the rat tail (tail flick) to radiant heat beam; test: Low-intensity tail flick test (rat); format: in vivo; settings: dose 10 mg/kg (dose in brackets), MPE = percentage of maximum possible effect
Description: Method II. Low-Intensity Tail Flick Test (Rat)
In the low-intensity tail flick test, the determination of the antinociceptive effect of the compounds according to the invention towards an acute noxious thermal stimulus is carried out by measuring the withdrawal reflex of the rat tail (tail flick) in response to a radiant heat beam (analgesia meter; model 2011 of the company Rhema Labortechnik, Hofheim, Germany) according to the method described by D'Amour and Smith (J. Pharm. Exp. Ther. 72, 74 79 (1941). To this end, the rats were placed in a plexiglas restrainer, and a low-intensity radiant heat beam (48° C.) was focused onto the dorsal surface of the tail root. The stimulus intensity was adjusted to result in a mean pre-drug control withdrawal latency of about 7 s, thus also allowing a supraspinal modulation of the spinally mediated acute nociceptive reflex. […] Before administration of a compound according to the invention, the animals were pre-tested twice in the course of five minutes and the mean of these measurements was calculated as the pre-test mean. The antinociceptive effect was determined at 20, 40 and 60 min after peroral compound administration. The antinociceptive effect was calculated based on the increase in the tail withdrawal latency according to the following formula and is expressed as percentage of the maximum possible effect (MPE [%]): […]

[2] = biological target: T1, KCNQ2/3 channels (Homo sapiens, UniProt O43525+O43526); test: Fluorescence assay using a voltage sensitive dye (fluorimetry); format: cell-based; settings: CHO-K1 cells expressing KCNQ2/3 channels
T1 construct: expressed in transfected cells; host or cells: CHO-K1 cells kept under selection antibiotics
Description: Method I. Fluorescence Assay Using a Voltage Sensitive Dye (Fluorimetry) […] CHO-K1 cells expressing KCNQ2/3 channels are cultivated adherently at 37° C., 5% CO2 and 95% humidity in cell culture bottles (e.g. 80 cm^2 TC flasks, Nunc) with DMEM-high glucose (Sigma Aldrich, D7777) including 10% FCS (PAN Biotech, e.g. 3302-P270521) or alternatively MEM Alpha Medium (1×, liquid, Invitrogen, #22571), 10% fetal calf serum (FCS) (Invitrogen, #10270-106, heat-inactivated) and the necessary selection antibiotics.
Before being sown out for the measurements, the cells are washed with 1×DPBS buffer Ca^2+/Mg^2+-free (e.g. Invitrogen, #14190-094) and detached from the bottom of the culture vessel by using Accutase (PAA Laboratories, #L11-007) (incubation with Accutase for 15 min at 37° C.). The cell number is determined using a CASY™ cell counter (TCC, Scharfe System). Depending on the optimal density for each individual cell line, 20,000-30,000 cells/well/100 μl are seeded onto 96-well Corning™ CeIIBIND™ assay plates (Flat Clear Bottom Black Polystyrene Microplates, #3340). Freshly seeded cells are then left to settle for one hour at room temperature, followed by incubation for 24 hours at 37° C., 5% CO2 and 95% humidity.
The voltage-sensitive fluorescent dye from the Membrane Potential Assay Kit (Red™ Bulk format part R8123 for FLIPR, MDS Analytical Technologies™) is prepared by dissolving the contents of one vessel Membrane Potential Assay Kit Red Component A in 200 ml of extracellular buffer (ES buffer, 120 mM NaCl, 1 mM KCl, 10 mM HEPES, 2 mM CaCl2, 2 mM MgCl2, 10 mM glucose; pH 7.4). After removal of the nutrient medium, the cells are washed once with 200 μl of ES buffer, then loaded for 45 min at room temperature in 100 μl of dye solution in the dark.
Fluorescence measurements are carried out in a BMG Labtech FLUOstar™, BMG Labtech NOVOstar™ or BMG Labtech POLARstar™ instrument (525 nm excitation, 560 nm emission, Bottom Read mode). After incubation with the dye, 50 μl of the test substances in the desired concentrations, or 50 μl of ES buffer for control purposes, are applied to the wells of the assay plate and incubated for 30 min at room temperature while being shielded from light. The fluorescence intensity of the dye is then measured for 5 min and the fluorescence value F1 of each well is thus determined at a given, constant time. 15 μl of a KCl solution are then added to each well (final concentration of potassium ions 92 mM). The change in fluorescence intensity is subsequently monitored until all the relevant values have been obtained (mainly 5-30 min). At a given time post KCl application, a fluorescence value F2 is determined, in this case at the time of the fluorescence peak.
For calculation, the fluorescence intensity F2 is corrected for the fluorescence intensity F1, and the activity (ΔF/F) of the target compound on the potassium channel is determined as follows:
In order to determine whether a substance has agonistic activity, is determined by adding to the well only the buffer solution instead of the test substance, determining the value F1K of the fluorescence intensity, adding the potassium ions as described above, and measuring a value F2K of the fluorescence intensity. F2K and F1K are then calculated as follows: […]
A substance has an agonistic activity on the potassium channel if it is possible to conclude that a target compound has agonistic activity if Calculations of EC50 and IC50 values are carried out with the aid of ‘Prism v4.0’ software (GraphPad Software™).

Emax ([2]; relative to retigabine = 100%, read-out: Fluorimetry % efficacy (retigabine = 100%)): 187%
EC50 ([2]; voltage-sensitive dye, read-out: Fluorimetry EC50/IC50): 263 nM
SMILES: CCCc1cc(N2CCOCC2)nc(C)c1C(=O)NCc1ccc(Cl)cc1 [Example 4, N-[(4-Chlorophenyl)-methyl]-2-methyl-6-morpholin-4-yl-4-propyl-pyridine-3-carboxylic acid amide]
Low intensity tail flick, rat, peroral, MPE (dose) [1]: 42 (10) %
